In brackets after ≈: the same amount, converted by molar mass. Several values for one entry are separate records, joined by “and”; a condition that tells them apart may be missing. Identical values can stand only once. Like-named read-outs stand apart in the source and are kept apart here.
How the values were obtained:
[1] = tested on: ECF-FoIT2; assay: Uptake assay into proteoliposome (radiolabelled folate uptake); type: biochemical, L. delbrueckii; details: folate uptake into proteoliposomes, n = 2, mean ± SD
Method: In summary, both 1 and 22 are capable of inhibiting the ECF-FoIT2 in a proteoliposome-based uptake assay which further complements the results obtained from the whole-cell uptake assay. Table 4. Relative inhibition of ECF-FoIT2 in proteoliposome uptake assay
4.3.2. Uptake assay into proteoliposome
This assay was performed based on the protocol reported by Swier et al. with minor modifications.^18

[2] = tested on: E. faecium DSM-17050; assay: MIC screening against Gram-positive pathogens; type: cell-based; details: Enterococcus faecium
Method: (§1) 4.3.3. Screening against clinically relevant Gram-positive pathogens.
(§2) All microorganisms were obtained from the German Collection of Microorganisms and Cell Cultures (DSMZ) and were handled according to standard procedures. Bacteria were inoculated into tryptic soy broth (TSB) to obtain a final inoculum of […] colony-forming units (CFU)/mL. The tested compounds were prepared as DMSO stocks (20 mM). Serial dilutions of derivatives in the growth medium (0.06 to 128 µM) were prepared in sterile 96-well plates, and the bacterial suspensions were added. Growth inhibition was assessed after static incubation at 37 °C for 24 h. S. pneumoniae was grown at 5% CO2. MIC values are defined as the lowest compound concentration where no visible growth is observed.

[3] = tested on: E. faecium DSM-20478; assay: MIC screening against Gram-positive pathogens; type: cell-based; details: Enterococcus faecium
Method: as §1, §2

[4] = tested on: Enterococcus faecalis DSM-20477; assay: MIC screening against Gram-positive pathogens; type: cell-based
Method: as §1, §2

[5] = tested on: S. pneumoniae DSM-11865; assay: MIC screening against Gram-positive pathogens; type: cell-based; details: Streptococcus pneumoniae
Method: as §1, §2

[6] = tested on: Streptococcus pneumoniae DSM-20566; assay: MIC screening against Gram-positive pathogens; type: cell-based; details: 37 °C, 24 h
Method: as §1, §2

Row | MIC ([2]; DSM17050, E. faecium DSM-17050, vancomycin-resistant strain, TSB, 37 °C, 24 h, read-out: MIC) [µM] | MIC ([3]; DSM20478, E. faecium DSM-20478, TSB, 37 °C, 24 h, read-out: MIC) [µM] | MIC ([4]; DSM20477, Enterococcus faecalis DSM-20477, TSB, 37 °C, 24 h, read-out: MIC) [µM] | MIC ([5]; DSM11865, S. pneumoniae DSM-11865, penicillin-resistant strain, TSB, 37 °C, 24 h, 5% CO2, read-out: MIC) [µM] | MIC ([6]; DSM20566, TSB, 5% CO2, read-out: MIC) [µM] | MIC ([6]; TSB, 5% CO2) [µM] | SMILES | Relative inhibition (%) at 150 µM [1] | MIC ([2]; DSM17050, 24 h) [µM] | MIC ([3]; DSM20478, 24 h) [µM] | MIC ([4]; Enterococcus faecalis, DSM20477, 24 h) [µM] | MIC ([5]; DSM11865, 24 h) [µM]
1 | – | – | – | – | – | – | O=C(O)CCc1nc(-c2ccc(Cl)cc2)c(-c2ccccc2)o1 [Compound 1, 3-(4-(4-Chlorophenyl)-5-phenyloxazol-2-yl)propanoic acid] | 44% and 44 ± 2% | > 128 | > 128 | > 128 | > 128
2 | 2 (≈ 0.957 µg/mL) | 4 (≈ 1.91 µg/mL) | 4 (≈ 1.91 µg/mL) | 0.5 to 1 (≈ 0.239 to 0.478 µg/mL) | 0.5 to 1 (≈ 0.239 to 0.478 µg/mL) | 0.5 to 1 | O=C(O)c1cccc(-c2nc(-c3ccc(Cl)c(Cl)c3)c(-c3cccc(C(F)(F)F)c3)o2)c1 [Compound 22, 3-(4-(3,4-Dichlorophenyl)-5-(3-(trifluoromethyl)phenyl)oxazol-2-yl)benzoic acid] | 95% and 95 ± 1% | – | – | – | –

Source: EP4663242A1, “TARGETING THE ENERGY COUPLING FACTOR (ECF) TRANSPORTERS AS NOVEL ANTIMICROBIAL TARGET” (Helmholtz-Zentrum für Infektionsforschung GmbH, priority 2024, dated 2025)
